Measurements: patent US5104492A, “Recovery of carboxylic acids from water by precipitation from organic solutions” (The Regents of the University of California, priority 1990, dated 1992)

Experiments:
[1] = Solubility in MIBK plus 0.064 M tri-octyl/decyl amine; type: physicochemical
Source text: (§1) The use of MIBK plus 0.064 M tri-octyl/decyl amine as an organic phase was studied.

[2] = Source text: An aqueous solution of fumaric acid was extracted with methyl isobutyl ketone (MIBK).
[3] = Solubility in butyl ether (Example 4 repeated); type: physicochemical
Source text: as §1
The experiment of Example 4 was repeated using butyl ether as organic solvent.

[4] = Solubility in octanol (Example 4 repeated); type: physicochemical
Source text: as §1
The experiment of Example 4 was repeated using octanol as organic solvent.

Acid Concentration ([1]; nearly anhydrous): 0.115 mol/L
Acid Concentration ([1]; water saturated): 0.158 mol/L
solubility relative to the level observed at saturation level of water [2]: less than 1/5th
amount of acid in MIBK extract ([2]; MIBK extract before stripping, […] by weight water): 0.0874 mol/L
solubility of the acid in the ketone ([2]; dry mibk): 15.8 mM
Acid Concentration ([3]; water 0.0005 moles/liter): 0.0023 mol/L
Acid Concentration ([3]; water 0.084 moles/liter): 0.0036 mol/L
Acid Concentration ([4]; water 0.066 moles/liter): 0.0614 mol/L
Acid Concentration ([4]; water 1.54 moles/liter): 0.0899 mol/L
Acid Concentration ([4]; water 2.24 moles/liter): 0.0961 mol/L
Compound: O=C(O)/C=C/C(=O)O [fumaric acid]
